US20240390434A1, “PROBIOTIC ENHANCERS AND USES THEREOF” (Blis Technologies Limited, priority 2021, published 2024)
Where two headings read alike, the source gives them in different places.

How the values were obtained:
[1] = tested on: indicator strains; assay: Deferred antagonism assay, producer S. salivarius K12: total strains inhibited; type: cell-based; conditions: for Total number of strains inhibited / Total strains inhibited / Total stains inhibited: K12
Procedure: 1-2 producer strain colonies were transferred from a stock plate into 900 μL of suspension solution using a fresh cotton swab. Following this, suspensions were vortexed, and a sample was inoculated onto solid culture media using a fresh cotton swab. The inoculation was a streak that runs diametrically across the agar plate in a 1.5 cm wide strip. The plate was then incubated. Following incubation all visible colonies were removed by swabbing them from the agar surface. The plates were then treated with chloroform by dispensing 2 ml of chloroform onto 4 cm×4 cm piece of cloth and sealing the inverted agar plate on top for 30 minutes. The plates were then air dried for 30 minutes following chloroforming. 1-2 indicator strain colonies were then transferred from a stock plate into complementary suspension solution. The suspensions were then vortexed, and a sample was inoculated onto the same agar surface. These samples were streaked in a perpendicular direction to the initial producer streak.
Each indicator streak was prepared with fresh a suspension containing cells from a corresponding stock plate containing the indicator strain of interest. Indicator strains suspension samples were transferred using a fresh cotton swab. Results were measured by qualitatively reviewing the subsequent (if any) sizes of the zones of inhibition (ZOI) of indicator strain colony growth. A positive result is when there is a distinctive reduction or complete inhibition of indicator colony growth on the culture medium.
CABCa agar plates containing various concentrations of saccharide were prepared according to the methods described in Method 1. Producer strains were transferred from stock agar plates into 900 μL THB using a fresh cotton swab. A plastic spread plater was cut to approximately 1.2 cm width and then dipped into ethanol and left to air dry to ensure sterility. A 100 μL sample of the producer strain suspension was then dispensed onto the agar surface in a straight line running diametrically across the agar surface in (approximately) 20 μL spots. The spots were spaced approximately 1.5 cm apart from each other. The plastic spreader was then used to evenly distribute the spots across the agar surface in a 1.5 cm wide strip. This step was taken to ensure an even producer streak was inoculated onto the agar surface and provided an approximate measure of the initial inoculum concentration. Separate plastic spreaders were used for samples containing different producer strains. The samples were left to soak into the agar surface until there was no visible liquid remaining on the agar surface (approximately 20 minutes). Following producer streak preparations, the deferred antagonism assay protocol was followed as per Method 2. Results were recorded by measuring the size of the zone of inhibition (ZOI) in mm.
A dose response assay was carried out according to method 3 above, except a 1.2 cm streak was used. For the individual saccharide testing the pH of the producer streak was adjusted after the growth of producer to change the acidic conditions.
A deferred antagonism assay was conducted using K12 or M18 raw ingredient suspended in Todd Hewitt broth (THB). This was spread as a 1.2 cm streak containing approximately 1-2×10^6 cfu down the middle of a CABCa control or CABCa galactose supplemented test plate. After 18 hrs growth at 37° C. with 5% CO2, bacterial growth was removed, and the pH of the agar in the initial streak was measured and adjusted to a pH of 6.5-7.5 using 0.5M sodium carbonate pH11 before sterilizing the agar surface using chloroform vapor. Bacterial test strains were suspended in i-THB before being swabbed across the plates perpendicular to the initial streak. Plates were incubated for a further 18 hrs incubation at 37° C. with 5% CO2 before measuring (mm) any zones of inhibition for each test strain, […]

[2] = tested on: salB; type: cell-based, S. salivarius K12; conditions: K12
Procedure: Method: CABCa agar plates were prepared either with or without 2.5% w/w raffinose, 0.5% w/w galactose, combined 2.5% w/w raffinose and 0.5% w/w galactose, 0.5% w/w glucose or 2.5% w/w glucose by the addition of 0.5% (w/v) calcium carbonate to solid CAB agar in bottles and then melted by autoclaving at 110° C. for 10 mins. Once cooled, filter sterilised solutions of the saccharides or distilled water were added and mixed and then 20 ml pipetted into petri dishes.
A S. salivarius K12 raw ingredient suspension was prepared in PBS containing approx. 1×10^8cfu/ml. 100p of this suspension was spread evenly onto control and test agar plates. Plates were incubated at 37° C. with 5% CO2 for approx, 19 hrs.
Bacterial growth from each plate was collected using a sterile cotton swab and resuspended into 1 ml PBS in a screw capped tube. The bacterial cells were then pelleted by centrifugation at 13,000 rpm for 1 minute at 4° C. The supernatant was removed, and the cell pellet was resuspended in 1 ml of TRIzol reagent. The bacterial cell suspension was transferred into a 2 ml screw-capped tube containing 0.1 mm Zirconia/silicon beads. […]
The cDNA samples from K12 raw ingredient grown on the CABCa control plates and CABCa supplemented with the various saccharides were then analysed by qPCR for the levels of gene expression of the following genes: salA, salB, salQ and ureC. […]

[3] = tested on: S. pyogenes strains or other pathogens; assay: Inhibitory activity of K12 grown in M17 broth with saccharides; type: cell-based; conditions: saccharide 0.83% or 2.5% w/v, vs control
[4] = tested on: bacterial indicator strains; assay: Split plate inhibitory activity of K12 in commercial powder Daily Defence Junior; type: cell-based; conditions: raffinose 2.5% w/w, galactose 0.5% w/w, or combination
Procedure: Method: Formulations for testing were prepared as follows: • 1. Control: Commercial powder formulation (Daily Defence Junior) containing S. salivarius K12 • 2. Galactose 0.5% w/w was added to the commercial powder and mixed thoroughly to achieve a uniform mixture. • 3. Raffinose 2.5% w/w was added to the commercial powder and mixed thoroughly to achieve a uniform mixture.
The following method was used to measure the inhibitory effect of S. salivarius K12 in the context of the powder formulations. Exactly 40 mL of 50° C. molten CAB agar containing 0.5% calcium carbonate (CABCa) was poured in agar plates (120×120 mm). Once the agar was set upon cooling, it was split in the middle and half of the agar gel was removed. The other half was left on the plate as Blank agar marked as side “A”. Approximately, 0.8 g of each combination (DDJ powder with (1) galactose, (2) raffinose or (3) combination of raffinose and galactose) was mixed with 1 mL of sterile distilled water and vortexed to produce a homogeneous suspension. […] The pH of the producer side was measured and adjusted to 6.5-7.5 by soaking into the agar a solution of 0.5 M sodium carbonate pH 11. […] The zone of inhibition of each indicator strain was measured (in mm) using a ruler. Results were also read using a macroscope to establish presence of small colonies or complete inhibition zones.

OC[C@H]1O[C@H](OC[C@H]2O[C@H](O[C@]3(CO)O[C@H](CO)[C@@H](O)[C@@H]3O)[C@H](O)[C@@H](O)[C@@H]2O)[C@H](O)[C@@H](O)[C@H]1O [Raffinose, D-(+) Raffinose pentahydrate] was tested, and the “Total number of strains inhibited” value ([1]; Raffinose 1.7% wt) was 6, the “Total number of strains inhibited” value ([1]; Raffinose 1.7% wt, pH adjusted) was 5 and the “Total number of strains inhibited” value ([1]; Raffinose 2.5% wt) was 7. For the same compound, the “Total number of strains inhibited” value ([1]; Raffinose 2.5% wt, pH adjusted) was 6, the “Total number of strains inhibited” value ([1]; Raffinose 3.3% wt) was 5 and the “Total number of strains inhibited” value ([1]; Raffinose 3.3% wt, pH adjusted) was 5. The “Total number of strains inhibited” value ([1]; Raffinose 5% wt) was 6, the “Total number of strains inhibited” value ([1]; Raffinose 5% wt, pH adjusted) was 6 and the “Total number of strains inhibited” value ([1]; Raffinose 10% wt) was 6. For the same compound, the “Total number of strains inhibited” value ([1]; Raffinose 10% wt, pH adjusted) was 6, the Total strains inhibited ([1]; saccharide 3.3% w/v) was 3/3 and the Total strains inhibited ([1]; saccharide range 2.5%-10% w/v) was 3/3. For the same compound, the “number of the indicators tested inhibited” value ([1]; Raffinose 1.7, 2.5, 3.3 and 5%, K12 or M18) was “at least 7”, the “inhibitory spectrum of K12 or M18” value ([1]; Raffinose (2.5%)) was “inhibit several ENTR, dental and skin pathogens and S. salivarius strains” and the “increase in gene expression of salB relative to no sugar control” value ([2]; 2.5% w/w sugar in CABCa agar) was 241 fold. For the same compound, the “inhibitory activity of K12 grown in presence of saccharide” value [3] was “greater inhibitory activity” and the “inhibitory activity of S. salivarius K12 in commercial powder vs control” value [4] was “increased”.

O=C[C@H](O)[C@@H](O)[C@@H](O)[C@H](O)CO [Galactose, D-galactose] was tested, and the Total stains inhibited ([1]; Galactose 0.5% w/w) was 5/6, the Total stains inhibited ([1]; Galactose 1.25% w/w) was 5/7 and the Total stains inhibited ([1]; Galactose 1.7% w/w) was 4/7. The Total stains inhibited ([1]; Galactose 2.5% w/w) was 4/7, the Total stains inhibited ([1]; Galactose 3.3% w/w) was 2/7 and the Total stains inhibited ([1]; Galactose 5% w/w) was 0/7. For the same compound, the Total strains inhibited ([1]; saccharide 3.3% w/v) was 0/3, the Total strains inhibited ([1]; saccharide range 0.83%-3.3% w/v) was 1/3 and the “inhibitory activity (potency) and spectrum of Blis K12 and Blis M18” value ([1]; only at 0.5% w/w Galactose) was “enhanced inhibitory activity”. For the same compound, the “increase in gene expression of salB relative to no sugar control” value ([2]; 0.5% w/w sugar in CABCa agar) was 641 fold, the “inhibitory activity of K12 grown in presence of saccharide” value [3] was “greater inhibitory activity” and the “inhibitory activity of S. salivarius K12 in commercial powder vs control” value [4] was “increased”.
